pEC50: −log10 of the molar value.
Target: T1, TRAP1 enzyme (Homo sapiens, UniProt Q12931)
T1 sequence (Q12931 60-704): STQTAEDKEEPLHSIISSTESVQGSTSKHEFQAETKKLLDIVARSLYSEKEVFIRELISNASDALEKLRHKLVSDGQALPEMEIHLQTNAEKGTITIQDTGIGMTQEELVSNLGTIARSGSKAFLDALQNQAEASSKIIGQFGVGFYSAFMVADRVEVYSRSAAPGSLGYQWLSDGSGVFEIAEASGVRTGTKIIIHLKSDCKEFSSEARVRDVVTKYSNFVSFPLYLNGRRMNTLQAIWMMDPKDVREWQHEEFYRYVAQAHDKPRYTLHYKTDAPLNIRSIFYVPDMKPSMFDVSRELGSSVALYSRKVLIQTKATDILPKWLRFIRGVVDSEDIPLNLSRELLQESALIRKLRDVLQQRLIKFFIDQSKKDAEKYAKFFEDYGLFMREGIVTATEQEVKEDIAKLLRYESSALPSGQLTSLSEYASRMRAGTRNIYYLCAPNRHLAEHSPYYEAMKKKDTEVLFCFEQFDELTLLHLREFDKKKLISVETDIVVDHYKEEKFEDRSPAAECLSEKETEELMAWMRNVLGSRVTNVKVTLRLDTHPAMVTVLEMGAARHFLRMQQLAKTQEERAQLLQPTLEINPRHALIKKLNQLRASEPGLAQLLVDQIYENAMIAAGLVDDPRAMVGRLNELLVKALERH
Test: ADP Glo assay (ATPase activity of TRAP1)
Assay type: biochemical
Details: for pEC50: 150 nM Trap1, 20 µM ATP, concentration for half maximal activation, read-out: ADP GLO DRC: GeoMean EC50; for Emax: maximal percent activation, read-out: ADP GLO DRC: Mean Emax
Experimental: Potency of test compounds to modulate the ATPase activity of TRAP1 enzyme was evaluated using ADP Glo assay. The assay is based on quantification of the ADP generated from ATP in the ATPase reaction. The assay is performed in two steps; first, after the ATPase reaction, an equal volume of ADP-Glo™ Reagent is added to terminate the ATPase reaction and deplete the remaining ATP. Second, the Kinase Detection Reagent is added to simultaneously convert ADP to ATP and allow the newly synthesized ATP to be measured using a luciferase/luciferin reaction.
All the assays were carried out in a 384-well Proxiplate. The buffer used was 25 mM Pipes pH-7.5, 40 mM KCl, 0.05 mM MgCl2, 0.025 % BSA, 0.316 mM EGTA, 0.003% Empigen, 0.01% Igepal. 150 nM Trap1 enzyme was incubated with various concentrations of the test compound (0.79 µM - 100 µM) at 37° C. for 30 mins (except in blank wells). 20 µM ATP was added to each well to start the reaction. The plate was spun for 1 min at 1200 rpm and then incubated at 37° C. for 60 mins. 5 µl of ADP Glo reagent was added to all the wells and spun the plate for 1 min at 1200 rpm and kept it on a shaker at ambient temperature for 60 mins. 10 µl of kinase detection mix was added to all the wells and the plate was read for Luminescence at 495 nm. The amount of ADP released was estimated from ATP/ADP standard curve generated at the same experimental conditions. Emax (Maximal percent activation) and EC50 (concentration for half maximal activation ) were estimated by fitting the dose response data to a sigmoidal curve fitting equation using Graphpad Prism software V. 8.

SMILES	pEC50	Emax [%]
O=C(Nc1ccc2c(c1)S(=O)(=O)N(c1ccc(C(F)(F)F)cc1)CCO2)c1cscn1 [Compound 2184]	> 4.70	129 to 149
O=C(Nc1ccc2c(c1)S(=O)(=O)N(c1ccc(C(F)(F)F)cc1)CCO2)c1cc[nH]c(=O)c1 [Compound 2187]	4.00 to 4.52	> 200
O=C(Nc1ccc2c(c1)S(=O)(=O)N(c1ccc(C(F)(F)F)cc1)CCO2)c1cc(=O)cco1 [Compound 2190]	4.00 to 4.52	> 200
Cc1cncc(C(=O)Nc2ccc3c(c2)S(=O)(=O)N(c2ccc(C(F)(F)F)cc2)CCO3)c1 [Compound 2191]	> 4.70	150 to 200
CC(C)n1cc(C(=O)Nc2ccc3c(c2)S(=O)(=O)N(c2ccc(C(F)(F)F)cc2)CCO3)cn1 [Compound 2192]	4.52 to 4.70	129 to 149
O=C(Nc1ccc2c(c1)S(=O)(=O)N(c1ccc(C(F)(F)F)cc1)CCO2)c1ccc(O)nn1 [Compound 2194]	> 4.70	129 to 149
O=C(Nc1ccc2c(c1)S(=O)(=O)N(c1ccc(C(F)(F)F)cc1)CCO2)c1ccccn1 [Compound 2197]	4.00 to 4.52	129 to 149
O=C(Nc1ccc2c(c1)S(=O)(=O)N(c1ccc(C(F)(F)F)cc1)CCO2)c1c(F)cncc1F [Compound 2198]	4.52 to 4.70	150 to 200
Cc1cnccc1C(=O)Nc1ccc2c(c1)S(=O)(=O)N(c1ccc(C(F)(F)F)cc1)CCO2 [Compound 2199]	4.52 to 4.70	150 to 200
Cc1ncc(C(=O)Nc2ccc3c(c2)S(=O)(=O)N(c2ccc(C(F)(F)F)cc2)CCO3)cn1 [Compound 2200]	4.00 to 4.52	150 to 200
CC(C)c1oncc1C(=O)Nc1ccc2c(c1)S(=O)(=O)N(c1ccc(C(F)(F)F)cc1)CCO2 [Compound 2202]	4.00 to 4.52	150 to 200
Cc1ncncc1C(=O)Nc1ccc2c(c1)S(=O)(=O)N(c1ccc(C(F)(F)F)cc1)CCO2 [Compound 2206]	4.00 to 4.52	150 to 200
COc1cnccc1C(=O)Nc1ccc2c(c1)S(=O)(=O)N(c1ccc(C(F)(F)F)cc1)CCO2 [Compound 2209]	4.52 to 4.70	129 to 149
Cc1cnc(C(=O)Nc2ccc3c(c2)S(=O)(=O)N(c2ccc(C(F)(F)F)cc2)CCO3)nc1 [Compound 2210]	> 4.70	150 to 200
CCn1cncc1C(=O)Nc1ccc2c(c1)S(=O)(=O)N(c1ccc(C(F)(F)F)cc1)CCO2 [Compound 2213]	> 4.70	150 to 200
Cc1nccnc1C(=O)Nc1ccc2c(c1)S(=O)(=O)N(c1ccc(C(F)(F)F)cc1)CCO2 [Compound 2215]	4.00 to 4.52	129 to 149
Cc1nn(C)cc1C(=O)Nc1ccc2c(c1)S(=O)(=O)N(c1ccc(C(F)(F)F)cc1)CCO2 [Compound 2219]	4.00 to 4.52	> 200
Cn1c(C(=O)Nc2ccc3c(c2)S(=O)(=O)N(c2ccc(C(F)(F)F)cc2)CCO3)cccc1=O [Compound 2221]	4.00 to 4.52	150 to 200
COc1cc(C(=O)Nc2ccc3c(c2)S(=O)(=O)N(c2ccc(C(F)(F)F)cc2)CCO3)n(C)n1 [Compound 2222]	> 4.70	150 to 200
O=C(Nc1ccc2c(c1)S(=O)(=O)N(c1ccc(C(F)(F)F)cc1)CCO2)c1cccnn1 [Compound 2224]	4.00 to 4.52	150 to 200
Cn1nncc1C(=O)Nc1ccc2c(c1)S(=O)(=O)N(c1ccc(C(F)(F)F)cc1)CCO2 [Compound 2226]	4.00 to 4.52	150 to 200
Cc1nscc1C(=O)Nc1ccc2c(c1)S(=O)(=O)N(c1ccc(C(F)(F)F)cc1)CCO2 [Compound 2227]	> 4.70	129 to 149

SMILES	pEC50	Emax [%]
Cn1nc(C(=O)Nc2ccc3c(c2)S(=O)(=O)N(c2ccc(C(F)(F)F)cc2)CCO3)ccc1=O [Compound 2228]	4.52 to 4.70	129 to 149
COc1nccnc1C(=O)Nc1ccc2c(c1)S(=O)(=O)N(c1ccc(C(F)(F)F)cc1)CCO2 [Compound 2230]	4.52 to 4.70	150 to 200
O=C(Nc1ccc2c(c1)S(=O)(=O)N(c1ccc(C(F)(F)F)cc1)CCO2)c1ccncc1 [Compound 2234]	4.52 to 4.70	150 to 200
Cc1ncc(C(=O)Nc2ccc3c(c2)S(=O)(=O)N(c2ccc(C(F)(F)F)cc2)CCO3)c(C)n1 [Compound 2236]	4.00 to 4.52	150 to 200
O=C(Nc1ccc2c(c1)S(=O)(=O)N(c1ccc(C(F)(F)F)cc1)CCO2)c1cccnc1 [Compound 2240]	4.00 to 4.52	150 to 200
Cn1cc(C(=O)Nc2ccc3c(c2)S(=O)(=O)N(c2ccc(C(F)(F)F)cc2)CCO3)cn1 [Compound 2241]	4.52 to 4.70	150 to 200
Cc1nnccc1C(=O)Nc1ccc2c(c1)S(=O)(=O)N(c1ccc(C(F)(F)F)cc1)CCO2 [Compound 2242]	4.00 to 4.52	> 200
COc1ncncc1C(=O)Nc1ccc2c(c1)S(=O)(=O)N(c1ccc(C(F)(F)F)cc1)CCO2 [Compound 2245]	4.52 to 4.70	129 to 149
Cc1nc(C)c(C(=O)Nc2ccc3c(c2)S(=O)(=O)N(c2ccc(C(F)(F)F)cc2)CCO3)s1 [Compound 2248]	4.00 to 4.52	150 to 200
Cn1cnc(C(=O)Nc2ccc3c(c2)S(=O)(=O)N(c2ccc(C(F)(F)F)cc2)CCO3)c1 [Compound 2249]	4.00 to 4.52	150 to 200
CCn1nccc1C(=O)Nc1ccc2c(c1)S(=O)(=O)N(c1ccc(C(F)(F)F)cc1)CCO2 [Compound 2254]	> 4.70	129 to 149
COCc1oncc1C(=O)Nc1ccc2c(c1)S(=O)(=O)N(c1ccc(C(F)(F)F)cc1)CCO2 [Compound 2257]	4.00 to 4.52	150 to 200
CC(C)n1cnc(C(=O)Nc2ccc3c(c2)S(=O)(=O)N(c2ccc(C(F)(F)F)cc2)CCO3)n1 [Compound 2258]	4.52 to 4.70	129 to 149
Cc1ccnc(C(=O)Nc2ccc3c(c2)S(=O)(=O)N(c2ccc(C(F)(F)F)cc2)CCO3)n1 [Compound 2261]	4.00 to 4.52	150 to 200
O=C(Nc1ccc2c(c1)S(=O)(=O)N(c1ccc(C(F)(F)F)cc1)CCO2)c1cnccc1F [Compound 2264]	4.52 to 4.70	129 to 149
CCc1nn(C)cc1C(=O)Nc1ccc2c(c1)S(=O)(=O)N(c1ccc(C(F)(F)F)cc1)CCO2 [Compound 2265]	> 4.70	150 to 200
Cn1cccc(C(=O)Nc2ccc3c(c2)S(=O)(=O)N(c2ccc(C(F)(F)F)cc2)CCO3)c1=O [Compound 2268]	> 4.70	150 to 200
Cc1cnncc1C(=O)Nc1ccc2c(c1)S(=O)(=O)N(c1ccc(C(F)(F)F)cc1)CCO2 [Compound 2275]	4.00 to 4.52	150 to 200
O=C(Nc1ccc2c(c1)S(=O)(=O)N(c1ccc(C(F)(F)F)cc1)CCO2)c1cccnc1O [Compound 2280]	4.00 to 4.52	150 to 200
Cc1ncccc1C(=O)Nc1ccc2c(c1)S(=O)(=O)N(c1ccc(C(F)(F)F)cc1)CCO2 [Compound 2286]	4.00 to 4.52	> 200
COc1cccnc1C(=O)Nc1ccc2c(c1)S(=O)(=O)N(c1ccc(C(F)(F)F)cc1)CCO2 [Compound 2288]	> 4.70	150 to 200
O=C(Nc1ccc2c(c1)S(=O)(=O)N(c1ccc(C(F)(F)F)cc1)CCO2)c1ccnc(CO)c1 [Compound 2290]	4.00 to 4.52	> 200
